Tests used:
Assay type in all cases: in vivo
[1] = tested on: nightshade (eastern black nightshade, Solanum ptycanthum); assay: Test F pre-/postemergence: nightshade; conditions: Preemergence
Summary of the method: (§1)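 Visual response scores, 0 meaning no effect and 100 complete control, were assigned against untreated controls 14 to 21 days after treatment. Test chemicals in a surfactant-containing non-phytotoxic solvent were applied preemergence to seeded silt loam soil or postemergence to 2–18 cm plants in peat-based medium.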

[2] = tested on: chickweed (common chickweed, Stellaria media); assay: Test D pre-/postemergence: chickweed
Summary of the method: (§2)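 Visual control ratings (0–100) after 14–21 days, controlled environment. Preemergence on silt loam; postemergence on 2–18 cm plants.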

[3] = tested on: field violet (Viola arvensis); assay: Test D pre-/postemergence: field violet
Summary of the method: as §2

[4] = tested on: bluegrass (annual bluegrass, Poa annua); assay: Test D pre-/postemergence: bluegrass
Summary of the method: as §2

[5] = tested on: poinsettia, wild (wild poinsettia, Euphorbia heterophylla); assay: Test F pre-/postemergence: poinsettia, wild
Summary of the method: as §1

[6] = tested on: barley, spring (spring barley, Hordeum vulgare); assay: Test D pre-/postemergence: barley, spring
Summary of the method: as §2

[7] = tested on: ragweed (common ragweed, Ambrosia elatior); assay: Test F pre-/postemergence: ragweed; conditions: Preemergence
Summary of the method: as §1

[8] = 8 g ai/ha, scale 0 to 100, 0 no effect, 100 complete control
[9] = 16 g ai/ha, scale 0 to 100, 0 no effect, 100 complete control
[10] = 31 g ai/ha, scale 0 to 100, 0 no effect, 100 complete control
[11] = Postemergence, 31 g ai/ha, scale 0 to 100 (0 no effect, 100 complete control)
[12] = Postemergence, 62 g ai/ha, scale 0 to 100 (0 no effect, 100 complete control)
[13] = Postemergence, 125 g ai/ha, scale 0 to 100, 0 no effect, 100 complete control
[14] = Postemergence, 16 g ai/ha, scale 0 to 100
[15] = Preemergence, 16 g ai/ha, scale 0 to 100, 0 no effect, 100 complete control
[16] = Preemergence, 31 g ai/ha, scale 0 to 100, 0 no effect, 100 complete control
[17] = Preemergence, 62 g ai/ha, scale 0 to 100
[18] = Preemergence, 125 g ai/ha, scale 0 to 100

CCOc1nn(-c2ccc(F)cc2)nc1Cc1ccnc(C(F)(F)F)c1 [Compound 196, 4-[[5-ethoxy-2-(4-fluorophenyl)-2H-1,2,3-triazol-4-yl]methyl]-2-(trifluoromethyl)pyridine]
95: Plant response rating, Nightshade [1, 8] | Plant response rating, Nightshade [1, 9] | Plant response rating, Nightshade [1, 10] | Plant response rating: Chickweed [2, 12] | Plant response rating: Field Violet [3, 12] | Plant response rating, Field Violet [3, 16] | Plant response rating, Poinsettia, Wild ([5]; Postemergence, 31 g ai/ha, scale 0 to 100) | Plant response rating, Poinsettia, Wild ([5]; Postemergence, 62 g ai/ha, scale 0 to 100) | Plant response rating, Poinsettia, Wild ([5]; Postemergence, 125 g ai/ha, scale 0 to 100)
60: Plant response rating, Bluegrass [4, 14]
75: Plant response rating: Bluegrass [4, 12] | Plant response rating, Bluegrass [4, 17] | Plant response rating, Poinsettia, Wild ([5]; Postemergence, 8 g ai/ha, scale 0 to 100) | Plant response rating, Poinsettia, Wild [5, 18]
65: Plant response rating, Chickweed [2, 16]
85: Plant response rating: Chickweed [2, 11] | Plant response rating: Field Violet [3, 11] | Plant response rating, Poinsettia, Wild [5, 14]
70: Plant response rating, Chickweed [2, 14] | Plant response rating: Bluegrass [4, 11]
100: Plant response rating, Nightshade ([1]; 125 g ai/ha, scale 0 to 100) | Plant response rating: Chickweed [2, 13] | Plant response rating, Chickweed [2, 17] | Plant response rating, Chickweed [2, 18] | Plant response rating: Field Violet [3, 13] | Plant response rating, Field Violet [3, 17] | Plant response rating, Field Violet [3, 18] | Plant response rating, Bluegrass [4, 18]
50: Plant response rating, Chickweed [2, 15] | Plant response rating, Poinsettia, Wild [5, 15] | Plant response rating, Poinsettia, Wild [5, 16] | Plant response rating, Ragweed ([7]; 125 g ai/ha, scale 0 to 100)
80: Plant response rating, Field Violet [3, 14] | Plant response rating, Field Violet [3, 15] | Plant response rating: Bluegrass [4, 13]
20: Plant response rating: Barley, Spring [6, 11]
0: Plant response rating, Poinsettia, Wild ([5]; Preemergence, 8 g ai/ha, scale 0 to 100, 0 no effect, 100 complete control) | Plant response rating, Ragweed [7, 8] | Plant response rating, Ragweed [7, 9] | Plant response rating, Ragweed [7, 10]
35: Plant response rating, Bluegrass [4, 16] | Plant response rating: Barley, Spring [6, 12]
15: Plant response rating, Barley, Spring [6, 14] | Plant response rating, Barley, Spring [6, 17]
55: Plant response rating: Barley, Spring [6, 13]
30: Plant response rating, Barley, Spring [6, 18]
5: Plant response rating, Bluegrass [4, 15] | Plant response rating, Barley, Spring [6, 15] | Plant response rating, Barley, Spring [6, 16]
